Results published in US20110003013A1, “METHOD OF INCREASING METABOLISM” (GARVAN INSTITUTE OF MEDICAL RESEARCH, priority 2008, published 2011).
“Also recorded” adds a separate entry of the source.

How the values were obtained:
[1] = Indirect calorimetry (Oxymax): VO2, VCO2, RER, heat, activity; type: in vivo, C57Bl/6 mice
Experimental: (§1) Each mouse was weighed weekly and the blood glucose levels assessed at random times every second week alternating with rectal temperatures. Intraperitoneal Glucose Tolerance Testing (IPGTT) was carried out at week 5 and 21 using 2g glucose/kg dose. Insulin Tolerance Testing (ITT) was carried at week 2 (0.33 U/kg) and week 6 (0.50 U/kg). Glucose Stimulated Insulin Secretion (GSIS)(3g glucose/kg) was studied out at week 7. Food intake studies were carried out at weeks 0, 4, 8 and 25. Indirect calorimetry was performed using the Oxymax System (Columbus Instruments, Columbus, Ohio) at weeks 0, 4, 8 and 25. Measurements were taken over a 12-hour light cycle and a 12-hour dark cycle.
Mice were placed with ad libitum food and water in separate chambers in an 8 chamber, indirect open circuit calorimeter (Columbus Oxymax Respirometer 0246-002M, Columbus Instruments Ohio USA) for 36-48 hours. This machine obtains periodic measurements of the percentage of oxygen and carbon dioxide in the test chamber. Changes in gas concentrations are used to calculate the rate of oxygen consumption (VO2) and carbon dioxide production (VCO2) per mouse, with a readout every 27 minutes (Oxymax Software 0246-102M). The software calculates heat production per mouse and the respiratory exchange ratio (RER) (VCO2/VO2) using VO2 and VCO2. Activity levels were simultaneously measured in 2 dimensions (Opto-M3 activity meter) using […] wavelength light beams. Ambulatory movements were registered when more than one light beams in the same axis were crossed by an animal in a given period of time. The last 24 hours of data were analysed to allow for an acclimatisation period.
The hourly mean VO2 and VCO2 (mL/hr/kg total body weight) were calculated by averaging the VO2 and VCO2 readings produced by the Oxymax software for each hour. VO2 and VCO2 per unit of lean body mass (VXX2LM) was calculated from the Oxymax results (VXX2) using the following equation: […]
The hourly mean RER and the total, light and dark RER were calculated in a similar manner to VO2 and VCO2. No adjustment for body weight was required.
Heat (total energy expenditure, kcal/hr/mouse) was calculated by the Oxymax software using the formula:
Heat=CV (calorific value)*VO2 where CV=3.815+(1.232*RER)
The hourly mean heat production and the total, light and dark heat production were calculated in a similar manner to VO2 and VCO2. Heat production per unit of lean body mass was calculated by dividing the Oxymax reading by unit of lean body mass.
To quantify activity levels, the total number of ambulatory movements in the x axis and the y axis was calculated per unit time for each mouse.
Oxymax data were analysed using t-tests.

[2] = Blood and liver safety parameters (haemoglobin, white blood counts, transaminases, serum iron); type: in vivo, C57Bl/6 mice; details: vs control mice
Experimental: (§2) Plasma insulin was measured with ELISA kits. Liver transaminases and plasma lipids were performed by Sydpath Pathology, St Vincent's Hospital. Liver triglycerides were extracted using methanol/chloroform 2:1 and detected using colorimetric assay.

[3] = test system: HIF-1α; test: Western blot of liver lysates for HIF-1α; type: in vivo, C57Bl/6 mice; details: vs control
Experimental: Fresh tissues were removed rapidly from culled animals and kept frozen in the −80° C. freezer. They were then homogenized in lysis buffer and sonicated in cold RIPA buffer ([…] pH 7.4, 1% NP40, 0.25% sodium deoxycholate, […], 1 mM EDTA, 1 mM PMSF and protease inhibitor cocktail). 121 μg of protein sample was resolved on an 8% SDS PAGE gel. Proteins were transferred onto nitrocellulose membrane. Primary antibodies (HIF-1α, and (β-tubulin) were prepared in milk buffers at concentrations of 1:500 and 1:2000 respectively and the membrane was incubated overnight at 4° C. Membranes were then rinsed with Phosphate Buffered Solution containing Tween and HRP-conjugated secondary antibodies (at 1:1000 dilution). Proteins were visualised using enhanced chemiluminescence.

[4] = Intraperitoneal glucose tolerance test; type: in vivo, C57Bl/6 mice; details: 2 g glucose/kg i.p., vs CON mice
Experimental: as §1
Mice were fasted overnight for 16 hours. Glucose was administered at a dose of 2g/kg by intraperitoneal injection in the form of a 20% dextrose solution. Blood glucose was measured via glucometer (Accucheck Advantage II, Roche, Australia) prior to, and at 15, 30, 60, 90 and 120 minutes after the dextrose injection.
Mice were fasted for 6 hours before intraperitoneal administration of glucose (2 g/kg dose) in sterile water. Blood glucose was measured by glucometer at the times indicated.

[5] = Blood glucose levels assessed at random times; type: in vivo, C57Bl/6 mice; details: over 9 weeks of high fat diet, vs CON mice
Experimental: as §1

[6] = Insulin tolerance test; type: in vivo, C57Bl/6 mice
Experimental: as §1
Mice were fasted overnight for 16 hours. Insulin was injected at 0.5 units per kg (diluted in 1× PBS with 1% bovine serum albumin) by intraperitoneal injection. Blood glucose was measured via glucometer prior to, and at 10, 20, 30, 45 and 60 minutes after the insulin injection.

[7] = Fasting plasma insulin and glucose stimulated insulin secretion (GSIS); type: in vivo, C57Bl/6 mice
Experimental: as §1, §2

[8] = Body weight of ob/ob mice on chow diet with DFS; type: in vivo; details: vs control ob/ob mice
Experimental: Studies were also performed using ob/ob mice, in particular, 5 ob/ob controls and 5ob/ob mice administered DFS. Wild type C57bl/6 mice were also used as controls, 4 untreated and 4 administered DFS.

[9] = Iron levels in the liver; type: in vivo, C57Bl/6 mice; details: vs CON mice, data not shown
Experimental: (§3) Mice livers were fixed in 10% buffered formaldehyde, embedded in paraffin and slides were prepared using standard haematoxylin and eosin as well as Perl staining to visualize hepatic iron.

[10] = Body weight of mice on high fat diet with DFS; type: in vivo, C57Bl/6 mice; details: Studies 1-4, vs control mice, from about 3 to about 10 weeks after commencement
Experimental: Four studies were performed using C57Bl/6 mice. Study 1 included 30 control mice and 30 mice administered DFS. Study 2 included 30 control mice and 30 mice administered DFS. Study 3 included 8 control mice and 8 mice administered DFS. Study 4 included 18 control mice and 18 mice administered DFS. Mice in Study 3 differed to those in studies 1 and 2 in so far as they were sourced from different colonies.
Mice were randomly separated equally into a treatment group receiving Deferasirox (DFS) or a control group (CON). DFS was powdered using a mortar and pestle and mixed in thoroughly with the dry mineral mix prior to the addition of melted lard and then left to harden overnight in the refrigerator to form high-fat diet (HFD). From 6 weeks of age for up to 25 weeks, the mice were then fed ad libitum this HFD, from which 45% of their calories were derived from animal lard.
as §1, with “Indirect calorimetry was performed using the Oxymax System (Columbus Instruments, Columbus, Ohio) at weeks 0, 4, 8 and 25. Measurements were taken over a 12-hour light cycle and a 12-hour dark cycle.” left out

[11] = Food intake studies; type: in vivo, C57Bl/6 mice
Experimental: as §1

[12] = Weight of visceral, white and brown adipose tissue; type: in vivo, C57Bl/6 mice; details: high fat diet, vs control mice
[13] = HFD-induced hepatic lipid accumulation (steatosis); type: in vivo, C57Bl/6 mice; details: 10 weeks on HFD, vs CON mice, data not shown
Experimental: as §3, §2

[14] = test system: AKT2, IRS1, IRS2, PFK, GLUT2, HSL, LPL; test: Liver gene expression by quantitative real-time PCR; type: in vivo, C57Bl/6 mice; details: vs control
Source text: Tissues were homogenized in extraction buffer and RNA was isolated according to the RNeasy Kit protocol. […] The level of mRNA for each gene was normalized to the level of TATA box binding-protein (TBP) mRNA in each sample.

With `O=C(O)c1ccc(-n2nc(-c3ccccc3O)nc2-c2ccccc2O)cc1` [DFS, 4-[3,5-Bis (2-hydroxyphenyl)-1H-1,2,4-triazol-1-yl]-benzoic acid] the “oxygen consumption (VO2)” value ([1]; after 8 weeks of high fat diet and DFS, vs control mice) was “significantly increased; also recorded: consume significantly more oxygen than control mice”, the “oxygen consumption (VO2)” value ([1]; after 25 weeks of high fat diet and DFS, vs control mice) was “significantly increased; also recorded: consume significantly more oxygen than control mice” and the metabolic rate ([1]; high fat diet, vs control mice) was “significantly higher metabolic rate”. The “respiratory exchange ratio (RER) (VCO2/VO2)” value ([1]; high fat diet, vs control mice) was “significantly reduced”, the “energy expenditure (EE) or heat production” value ([1]; over a day, high fat diet, vs control mice) was “significantly higher energy expenditure” and the “oxygen consumption (VO2) / baseline metabolic rate” value ([1]; week 0 (initial week of high fat diet and DFS), vs control mice) was “similar; also recorded: no significant difference”. For the same molecule, the CO2 production ([1]; week 8 of continuous DFS treatment, vs control mice) was “significantly increased”, the CO2 production ([1]; week 25 of continuous DFS treatment, vs control mice) was “significantly increased” and the “haemoglobin levels / anaemia” value [2] was “does not result in anaemia; also recorded: No significant difference”. For the same molecule, the “serum alanine transaminase levels” value [2] was “No significant difference”, the “serum aspartate aminotransferase levels” value [2] was “No significant difference” and the serum iron levels [2] was “No significant difference”. For the same molecule, the “significantly reduced liver function” value [2] was “does not result in”, the white blood counts [2] was “No significant difference” and the “level of HIF-1α relative to β-tubulin” value [3] was “increased HIF-1α; also recorded: higher levels of HIF-1α”. For the same molecule, the glucose tolerance ([4]; 21 weeks of high fat diet) was “continued beyond at least week 21; also recorded: significantly improved insulin tolerance”, the glucose tolerance ([4]; five weeks of high fat diet) was “significantly better glucose tolerance; also recorded: significantly improved glucose tolerance” and the “blood glucose levels at random times” value [5] was “generally had lower blood glucose levels; also recorded: significantly lower blood glucose levels”. The “insulin tolerance (ITT)” value ([6]; following five weeks of high fat diet, vs CON mice) was “performed significantly better; also recorded: significantly improved insulin tolerance”, the “proportion of animals with glucoses <2 mmol/L” value ([6]; vs 38% of controls, p<0.001, indicating improved insulin sensitivity, data not shown) was “About 80%” and the “mean fasting insulin levels vs control” value ([7]; high fat diet, p<0.005) was “significantly lower”. The fasting insulin levels ([7]; high fat diet, mean + SEM, p=0.005 vs control) was 2837+874 pmol/L, the “glucose stimulated insulin secretion (GSIS) profile” value ([7]; week 7, 3 g glucose/kg, vs control) was “better preservation” and the “weight gained over an eight week period” value ([8]; ob/ob mice on chow diet, p<0.0005) was “significantly lower; also recorded: gained significantly less weight”. The body weight ([8]; ob/ob mice on normal chow diet) was “reduced body weight (or reduced body weight increase)”, the liver iron levels [9] was “lower iron levels” and the “body weight / weight gain” value [10] was “significantly reduced body weights; also recorded: decreases weight gain”. The “food consumed adjusted per body weight” value ([11]; by 25 weeks, HFD, vs CON mice) was “eaten more HFD adjusted per body weight; also recorded: consumed significantly more food per gram of body weight”, the feed intake ([11]; week 0, vs CON animals) was “did not differ” and the “weight of brown adipose tissue (BAT)” value [12] was “unchanged”. For the same molecule, the “weight of visceral adipose tissue (VAT)” value [12] was “reduced; also recorded: significantly lighter”, the “weight of white adipose tissue (WAT)” value [12] was “reduced; also recorded: significantly lighter” and the macroscopic hepatic steatosis [13] was “relatively protected”. The AKT2 gene expression ([14]; normalized to TBP mRNA) was “significantly increased”, the IRS1 gene expression ([14]; normalized to TBP mRNA) was “significantly increased; also recorded: increased expression” and the IRS2 gene expression ([14]; normalized to TBP mRNA) was “significantly increased”. The PFK gene expression ([14]; normalized to TBP mRNA) was “significantly increased”, the GLUT2 expression [14] was “trend for improved” and the “hormone sensitive lipase (HSL) gene expression” value [14] was “significantly increased; also recorded: increased expression”. For the same molecule, the “lipoprotein lipase (LPL) gene expression” value [14] was “significantly increased; also recorded: increased expression”.

For `CC(=O)N(O)CCCCCNC(=O)CCC(=O)N(O)CCCCCNC(=O)CCC(=O)N(O)CCCCCN` [DFO], the “metabolism in a subject” value ([1]; summary statement of the inventors' work) was “capable of increasing metabolism”.
